Test results reported in ChEMBL document CHEMBL1128401, “Structure-activity relationships in the 8-amino-6,7,8,9-tetrahydro-3H-benz[e]indole ring system. 1. Effects of substituents in the aromatic system on serotonin and dopamine receptor subtypes” (J Med Chem, 1995).
Calls of active or inactive are those of the source. No cut-off for these calls is given here.

Key:
D(2) dopamine receptor [1] = target: T1, D(2) dopamine receptor (Rattus norvegicus, UniProt P61169); test: Binding affinity against Dopamine receptor D2 from CHO-K1 cells, using [3H]U-86,170 as the radioligand.; format: cell-based
Rattus norvegicus [2] = test: Compound was tested in vivo for DOPA accumulation in corpus striatum against reserpine-pretreated rats; format: functional
[3] = target: 5-hydroxytryptamine receptor 1D (Homo sapiens, UniProt P28221); test: Binding affinity against 5-hydroxytryptamine 1D receptor alpha expressed in CHO-K1 cells, using [3H]-5-HT as the radioligand.; format: cell-based; conditions: read-out: Ki
[4] = target: T2, 5-hydroxytryptamine receptor 1A (Rattus norvegicus, UniProt P19327); test: Binding affinity against 5-hydroxytryptamine 1A receptor from CHO-K1 cells, using [3H]8-OH-DPAT as the radioligand.; format: cell-based
T2 sequence (P19327 whole entry): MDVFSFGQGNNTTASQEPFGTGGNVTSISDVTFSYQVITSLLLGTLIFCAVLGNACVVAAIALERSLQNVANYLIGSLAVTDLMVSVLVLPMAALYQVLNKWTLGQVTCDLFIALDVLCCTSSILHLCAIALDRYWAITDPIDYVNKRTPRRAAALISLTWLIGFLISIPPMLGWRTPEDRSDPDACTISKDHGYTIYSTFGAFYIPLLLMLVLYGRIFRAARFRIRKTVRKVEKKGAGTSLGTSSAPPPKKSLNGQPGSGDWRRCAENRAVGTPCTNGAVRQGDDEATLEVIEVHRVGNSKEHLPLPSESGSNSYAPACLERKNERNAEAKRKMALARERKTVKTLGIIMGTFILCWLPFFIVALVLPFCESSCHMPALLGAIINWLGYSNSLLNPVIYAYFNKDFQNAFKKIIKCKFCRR

Rattus norvegicus [5] = test: In vivo for DOPA accumulation in limbic system against reserpine-pretreated rats.; format: functional
[6] = target: 5-hydroxytryptamine receptor 1B (Homo sapiens, UniProt P28222); test: Binding affinity against 5-hydroxytryptamine 1D receptor beta expressed in CHO-K1 cells, using [3H]5-HT as the radioligand.; format: cell-based; conditions: read-out: Ki
Rattus norvegicus [7] = test: In vivo for 5-HTP accumulation in limbic system against reserpine-pretreated rats.; format: functional
Rattus norvegicus [8] = test: The Compound was tested in vivo for DOPA accumulation in hemispheres (cortex) against reserpine-pretreated rats;I= inactive at the highest dose tested (50).; format: functional, organism-based
Rattus norvegicus [9] = test: In vivo for 5-HTP accumulation in hemispheres (cortex) against reserpine-pretreated rats.; format: functional
Rattus norvegicus [10] = test: In vivo for 5-HTP accumulation in corpus striatum against reserpine-pretreated rats.; format: functional
D(3) dopamine receptor [11] = target: T3, D(3) dopamine receptor (Rattus norvegicus, UniProt P19020); test: Binding affinity against Dopamine receptor D3 from CHO-K1 cells, using [3H]spiperone as the radioligand.; format: cell-based; conditions: read-out: Ki
D(3) dopamine receptor [12] = target: T3, D(3) dopamine receptor; test: The compound was tested in vitro for binding affinity against cloned mammalian Dopamine receptor D3 expressed in CHO cells by, using [3H]spiperone as radioligand; format: cell-based
Rattus norvegicus [13] = test: compound was tested in vivo for DOPA accumulation in corpus striatum against reserpine-pretreated rats; P=significant partial reduction only at the highest dose tested (12.5).; format: functional, organism-based
Rattus norvegicus [14] = test: The compound was tested in vivo for DOPA accumulation in hemispheres (cortex) against reserpine-pretreated rats; I= inactive at the highest dose tested (12.5).; format: functional, organism-based
Rattus norvegicus [15] = test: compound was tested in vivo for 5-HTP accumulation in limbic system against reserpine-pretreated rats,; format: functional
Rattus norvegicus [16] = test: compound was tested in vivo for 5-HTP accumulation in corpus striatum against reserpine-pretreated rats, activity expressed as ED50; format: functional
Rattus norvegicus [17] = test: compound was tested in vivo for 5-HTP accumulation in hemispheres (cortex) against reserpine-pretreated rats(; format: functional
D(2) dopamine receptor [18] = target: T1, D(2) dopamine receptor; test: Binding affinity against Dopamine receptor D2 expressed in CHO-K1 cells, using [3H]U-86170 as the radioligand.; format: cell-based
D(3) dopamine receptor [19] = target: T3, D(3) dopamine receptor; test: Compound was tested for binding affinity against Dopamine receptor D3 expressed in CHO-K1 cells, using [3H]spiperone as the radioligand.;I = inactive (less than 50% inhibition at 1 uM).; format: cell-based
Rattus norvegicus [20] = test: The compound was tested in vivo for DOPA accumulation in hemispheres (cortex) against reserpine-pretreated rats;I= inactive at the highest dose tested; format: functional, organism-based
Rattus norvegicus [21] = test: compound was tested in vivo for 5-HTP accumulation in hemispheres (cortex) against reserpine-pretreated rats; format: functional
Rattus norvegicus [22] = test: compound was tested in vivo for 5-HTP accumulation in limbic system against reserpine-pretreated rats; format: functional
Rattus norvegicus [23] = test: compound was tested in vivo for 5-HTP accumulation in corpus striatum against reserpine-pretreated rats, activity expressed as ED50; inactive at the highest dose tested; format: functional
Rattus norvegicus [24] = test: compound was tested in vivo for 5-HTP accumulation in hemispheres (cortex) against reserpine-pretreated rats; inactive at the highest dose tested; format: functional
Rattus norvegicus [25] = test: compound was tested in vivo for 5-HTP accumulation in limbic system against reserpine-pretreated rats; inactive at the highest dose tested; format: functional
Rattus norvegicus [26] = test: compound was tested in vivo for DOPA accumulation in corpus striatum against reserpine-pretreated rats; I=inactive at the highest dose tested; format: functional, organism-based
Rattus norvegicus [27] = test: Bioavailability in male Sprague-Dawley rats, after the po administration at a dose of 20.0(pmol/g/h); format: ADME, organism-based; conditions: in vivo
Rattus norvegicus [28] = test: Oral bioavailability in rat
Rattus norvegicus [29] = test: Bioavailability in male Sprague-Dawley rats, after the iv administration at a dose of 1.0(pmol/g/h); format: ADME, organism-based; conditions: in vivo
Rattus norvegicus [30] = test: The compound was tested in vivo for DOPA accumulation in limbic system against reserpine-pretreated rats;I= inactive at the highest dose tested; format: functional, organism-based
[31] = tmax in hours at a iv dose of 1.0(pmol/g/h).; format: ADME, organism-based; conditions: in vivo
[32] = tmax in hours at a po dose of 20.0(pmol/g/h).; format: ADME, organism-based; conditions: in vivo

T1 sequence (P61169 whole entry): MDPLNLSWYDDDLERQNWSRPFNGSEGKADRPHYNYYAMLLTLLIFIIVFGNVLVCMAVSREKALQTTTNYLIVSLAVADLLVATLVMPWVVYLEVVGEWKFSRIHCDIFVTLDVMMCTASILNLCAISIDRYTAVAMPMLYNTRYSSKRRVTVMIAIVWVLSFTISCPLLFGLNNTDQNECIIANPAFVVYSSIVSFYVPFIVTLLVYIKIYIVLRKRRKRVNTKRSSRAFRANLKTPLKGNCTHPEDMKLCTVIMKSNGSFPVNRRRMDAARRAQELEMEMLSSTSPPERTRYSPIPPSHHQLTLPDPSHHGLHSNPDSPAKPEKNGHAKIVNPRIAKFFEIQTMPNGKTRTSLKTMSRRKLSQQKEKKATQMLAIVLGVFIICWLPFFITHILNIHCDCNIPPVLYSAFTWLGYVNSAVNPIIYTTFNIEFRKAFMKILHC
Sequence of 5-hydroxytryptamine receptor 1B (P28222 whole entry): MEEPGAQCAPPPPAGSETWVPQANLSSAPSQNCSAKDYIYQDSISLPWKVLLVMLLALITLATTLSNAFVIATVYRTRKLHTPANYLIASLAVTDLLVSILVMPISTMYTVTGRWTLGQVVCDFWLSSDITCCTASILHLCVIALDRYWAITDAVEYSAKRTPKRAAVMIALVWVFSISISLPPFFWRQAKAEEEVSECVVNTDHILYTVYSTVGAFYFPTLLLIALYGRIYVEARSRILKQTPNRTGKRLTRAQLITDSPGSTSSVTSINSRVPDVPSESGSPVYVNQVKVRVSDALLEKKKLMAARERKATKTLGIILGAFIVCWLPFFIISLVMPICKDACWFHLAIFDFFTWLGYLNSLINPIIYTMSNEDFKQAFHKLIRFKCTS
Sequence of 5-hydroxytryptamine receptor 1D (P28221 whole entry): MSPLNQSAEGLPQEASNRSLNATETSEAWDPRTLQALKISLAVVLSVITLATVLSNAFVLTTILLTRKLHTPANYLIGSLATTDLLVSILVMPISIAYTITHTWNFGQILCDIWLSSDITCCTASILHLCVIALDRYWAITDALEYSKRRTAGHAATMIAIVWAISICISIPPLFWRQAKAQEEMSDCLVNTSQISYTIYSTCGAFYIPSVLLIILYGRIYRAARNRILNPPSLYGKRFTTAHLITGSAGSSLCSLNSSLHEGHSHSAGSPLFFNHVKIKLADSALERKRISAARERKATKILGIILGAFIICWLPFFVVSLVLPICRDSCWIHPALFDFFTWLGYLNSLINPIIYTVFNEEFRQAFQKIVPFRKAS
T3 sequence (P19020 whole entry): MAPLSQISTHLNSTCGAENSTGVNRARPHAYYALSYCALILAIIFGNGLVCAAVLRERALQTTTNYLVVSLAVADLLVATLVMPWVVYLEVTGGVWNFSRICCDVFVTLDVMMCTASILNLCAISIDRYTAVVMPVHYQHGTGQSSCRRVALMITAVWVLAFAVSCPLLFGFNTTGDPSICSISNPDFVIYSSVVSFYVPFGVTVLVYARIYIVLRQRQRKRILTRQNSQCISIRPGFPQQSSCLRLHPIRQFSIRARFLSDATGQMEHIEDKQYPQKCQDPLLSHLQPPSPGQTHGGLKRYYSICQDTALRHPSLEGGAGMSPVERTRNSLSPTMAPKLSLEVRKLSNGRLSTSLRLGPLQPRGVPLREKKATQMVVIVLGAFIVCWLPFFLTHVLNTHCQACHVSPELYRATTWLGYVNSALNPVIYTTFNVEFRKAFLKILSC

SMILES	Ki (D(2) dopamine receptor [1]) [nM]	Ki [3] [nM]	Ki [4] [nM]	Ki [6] [nM]	Ki (D(3) dopamine receptor [11]) [nM]	ED50 (Rattus norvegicus [16]) [µmol/kg]	Ki (D(2) dopamine receptor [18]) [nM]	ED50 (Rattus norvegicus [20])	further results
CCCN(CCC)C1CCc2ccc3[nH]cc(C(=O)C(F)(F)F)c3c2C1 (stereo not drawn)	544	112	20	279	675	–	–	–	ED50 (Rattus norvegicus [2]): 12.6 µmol/kg; ED50 (Rattus norvegicus [5]): 20.8 µmol/kg; ED50 (Rattus norvegicus [7]): 12.6 µmol/kg; ED50 (Rattus norvegicus [8]): inactive; ED50 (Rattus norvegicus [9]): 16.3 µmol/kg; ED50 (Rattus norvegicus [10]): 6.5 µmol/kg
CCCN(CCC)C1CCc2cc(F)c3[nH]cc(C=O)c3c2C1 (stereo not drawn)	–	4.6	0.5	82	–	0.042	65	–	Ki (D(3) dopamine receptor [12]): 65 nM; ED50 (Rattus norvegicus [13]): Weak activity; ED50 (Rattus norvegicus [14]): inactive; ED50 (Rattus norvegicus [15]): 0.079 µmol/kg; ED50 (Rattus norvegicus [17]): 0.027 µmol/kg
CCCN(CCC)C1CCc2ccc3[nH]cc(S(C)(=O)=O)c3c2C1 (stereo not drawn)	–	52	11	373	–	–	265	–	Ki (D(3) dopamine receptor [19]): Not Active
CCCN(CCC)[C@@H]1CCc2cc(F)c3[nH]cc(C=O)c3c2C1	48	4.4	0.3	–	55	0.083	–	inactive	ED50 (Rattus norvegicus [21]): 0.084 µmol/kg; ED50 (Rattus norvegicus [22]): 0.078 µmol/kg
CCCN(CCC)[C@H]1CCc2cc(F)c3[nH]cc(C=O)c3c2C1	199	34	0.8	179	78	–	–	inactive	ED50 (Rattus norvegicus [23]): 0.17 µmol/kg; ED50 (Rattus norvegicus [24]): 0.32 µmol/kg; ED50 (Rattus norvegicus [25]): 0.23 µmol/kg
CCCN(CCC)C1CCc2cccc(O)c2C1 (stereo not drawn) [8-OH-DPAT]	1130	–	–	–	333	–	–	inactive	ED50 (Rattus norvegicus [26]): inactive; AUC (Rattus norvegicus [27]): 104 pM ml-1; F (Rattus norvegicus [28]): 2.4%; AUC (Rattus norvegicus [29]): 213 pM ml-1; ED50 (Rattus norvegicus [30]): inactive; Tmax [31]: 3 min; Tmax [32]: 29 min
